Test results: PubChem BioAssay (NCI)
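GI50 marks 50% less growth. The concentration for full growth arrest is given as TGI.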

What was measured:
Test in all cases: inhibition of tumour cell growth, NCI panel, 384-well format
RXF 393 renal = system: RXF 393 renal
SNB-75 CNS = system: SNB-75 CNS
HL-60(TB) leukemia = system: HL-60(TB) leukemia
IGROV1 ovarian = system: IGROV1 ovarian
MCF7 breast = system: MCF7 breast
A549 NSCLC = system: A549 NSCLC
K-562 leukemia = system: K-562 leukemia
SK-MEL-2 melanoma = system: SK-MEL-2 melanoma
MDA-MB-435 melanoma = system: MDA-MB-435 melanoma
CAKI-1 renal = system: CAKI-1 renal
HCT-15 colon = system: HCT-15 colon
NCI-H522 lung = system: NCI-H522 lung
786-0 renal = system: 786-0 renal
MALME-3M melanoma = system: MALME-3M melanoma
NCI-H226 lung = system: NCI-H226 lung
SF-295 CNS = system: SF-295 CNS
EKVX NSCLC = system: EKVX NSCLC
UACC-257 melanoma = system: UACC-257 melanoma
SK-MEL-5 melanoma = system: SK-MEL-5 melanoma
NCI-H322M lung = system: NCI-H322M lung
SNB-19 CNS = system: SNB-19 CNS
RPMI-8226 leukemia = system: RPMI-8226 leukemia
T-47D breast = system: T-47D breast
UO-31 renal = system: UO-31 renal
M14 melanoma = system: M14 melanoma
A498 renal = system: A498 renal
NCI-H23 lung = system: NCI-H23 lung
PC-3 prostate = system: PC-3 prostate
HCC-2998 colon = system: HCC-2998 colon
OVCAR-5 ovarian = system: OVCAR-5 ovarian
MOLT-4 leukemia = system: MOLT-4 leukemia
OVCAR-3 ovarian = system: OVCAR-3 ovarian
ACHN renal = system: ACHN renal
HOP-92 NSCLC = system: HOP-92 NSCLC
OVCAR-4 ovarian = system: OVCAR-4 ovarian
SF-268 CNS = system: SF-268 CNS
OVCAR-8 ovarian = system: OVCAR-8 ovarian
HOP-62 NSCLC = system: HOP-62 NSCLC
U251 glioblastoma = system: U251 glioblastoma
SR leukemia = system: SR leukemia
HS 578T breast = system: HS 578T breast
NCI-H460 NSCLC = system: NCI-H460 NSCLC
NCI/ADR-RES ovarian = system: NCI/ADR-RES ovarian
SK-OV-3 ovarian = system: SK-OV-3 ovarian
SW-620 colon = system: SW-620 colon
HT29 colon = system: HT29 colon
SN12C renal = system: SN12C renal
MDA-MB-468 breast = system: MDA-MB-468 breast
UACC-62 melanoma = system: UACC-62 melanoma
SK-MEL-28 melanoma = system: SK-MEL-28 melanoma
KM12 colon = system: KM12 colon
TK-10 renal = system: TK-10 renal
MDA-MB-231 breast = system: MDA-MB-231 breast
BT-549 breast = system: BT-549 breast
HCT-116 colon = system: HCT-116 colon
SF-539 CNS = system: SF-539 CNS
LOX IMVI melanoma = system: LOX IMVI melanoma
DU-145 prostate = system: DU-145 prostate

Cc1cnc(-c2ccc(-c3ccc(NC(=O)Nc4cccc(C(F)(F)F)c4)cc3F)c3c2C(=O)NC3)[nH]1
GI50 (RXF 393 renal): 923 nM
TGI (RXF 393 renal): 3400 nM
GI50 (SNB-75 CNS): 1130 nM
TGI (SNB-75 CNS): 2660 nM
GI50 (HL-60(TB) leukemia): 16.2 nM
TGI (HL-60(TB) leukemia): 1050 nM
GI50 (IGROV1 ovarian): 1320 nM
TGI (IGROV1 ovarian): 12400 nM
GI50 (MCF7 breast): 1080 nM
TGI (MCF7 breast): 4280 nM
GI50 (A549 NSCLC): 1050 nM
TGI (A549 NSCLC): 6400 nM
GI50 (K-562 leukemia): 51.6 nM
TGI (K-562 leukemia): 1300 nM
GI50 (SK-MEL-2 melanoma): 751 nM
TGI (SK-MEL-2 melanoma): 3240 nM
GI50 (MDA-MB-435 melanoma): 1270 nM
TGI (MDA-MB-435 melanoma): 10100 nM
GI50 (CAKI-1 renal): 145 nM
TGI (CAKI-1 renal): 8830 nM
GI50 (HCT-15 colon): 926 nM
TGI (HCT-15 colon): 4450 nM
GI50 (NCI-H522 lung): 34.5 nM
TGI (NCI-H522 lung): 1600 nM
GI50 ([…]-0 renal): 1470 nM
TGI (786-0 renal): 3730 nM
GI50 (MALME-3M melanoma): 590 nM
TGI (MALME-3M melanoma): 3820 nM
GI50 (NCI-H226 lung): 284 nM
TGI (NCI-H226 lung): 3150 nM
GI50 (SF-295 CNS): 93.3 nM
TGI (SF-295 CNS): 4690 nM
GI50 (EKVX NSCLC): 91.7 nM
TGI (EKVX NSCLC): 4160 nM
GI50 (UACC-257 melanoma): 1730 nM
TGI (UACC-257 melanoma): 9250 nM
GI50 (SK-MEL-5 melanoma): 1010 nM
TGI (SK-MEL-5 melanoma): 4350 nM
GI50 (NCI-H322M lung): 7120 nM
TGI (NCI-H322M lung): 26500 nM
GI50 (SNB-19 CNS): 1700 nM
TGI (SNB-19 CNS): 4540 nM
GI50 (RPMI-8226 leukemia): 31 nM
TGI (RPMI-8226 leukemia): 1490 nM
GI50 (T-47D breast): 2060 nM
TGI (T-47D breast): 6710 nM
GI50 (UO-31 renal): 81.7 nM
TGI (UO-31 renal): 1460 nM
GI50 (M14 melanoma): 126 nM
TGI (M14 melanoma): 3180 nM
GI50 (A498 renal): 134 nM
TGI (A498 renal): 2210 nM
GI50 (NCI-H23 lung): 783 nM
TGI (NCI-H23 lung): 2390 nM
GI50 (PC-3 prostate): 1960 nM
TGI (PC-3 prostate): 5350 nM
GI50 (HCC-2998 colon): 2860 nM
TGI (HCC-2998 colon): 6700 nM
GI50 (OVCAR-5 ovarian): 5690 nM
TGI (OVCAR-5 ovarian): 22700 nM
GI50 (MOLT-4 leukemia): < 10 nM
TGI (MOLT-4 leukemia): 11.7 nM
GI50 (OVCAR-3 ovarian): 75.5 nM
TGI (OVCAR-3 ovarian): 2110 nM
GI50 (ACHN renal): 681 nM
TGI (ACHN renal): 10300 nM
GI50 (HOP-92 NSCLC): 685 nM
TGI (HOP-92 NSCLC): 3310 nM
GI50 (OVCAR-4 ovarian): 96.5 nM
TGI (OVCAR-4 ovarian): 2660 nM
GI50 (SF-268 CNS): 261 nM
TGI (SF-268 CNS): 3000 nM
GI50 (OVCAR-8 ovarian): 1210 nM
TGI (OVCAR-8 ovarian): 10500 nM
GI50 (HOP-62 NSCLC): 103 nM
TGI (HOP-62 NSCLC): 2030 nM
GI50 (U251 glioblastoma): 1340 nM
TGI (U251 glioblastoma): 3170 nM
GI50 (SR leukemia): < 10 nM
TGI (SR leukemia): 14.4 nM
GI50 (HS 578T breast): 50.3 nM
TGI (HS 578T breast): 1530 nM
GI50 (NCI-H460 NSCLC): 38.1 nM
TGI (NCI-H460 NSCLC): 1360 nM
GI50 (NCI/ADR-RES ovarian): 24000 nM
TGI (NCI/ADR-RES ovarian): > 100000 nM
GI50 (SK-OV-3 ovarian): 926 nM
TGI (SK-OV-3 ovarian): 4140 nM
GI50 (SW-620 colon): 83.5 nM
TGI (SW-620 colon): 3640 nM
GI50 (HT29 colon): 2180 nM
TGI (HT29 colon): 13600 nM
GI50 (SN12C renal): 75.5 nM
TGI (SN12C renal): 2270 nM
GI50 (MDA-MB-468 breast): 28.2 nM
TGI (MDA-MB-468 breast): 75.4 nM
GI50 (UACC-62 melanoma): 276 nM
TGI (UACC-62 melanoma): 4730 nM
GI50 (SK-MEL-28 melanoma): 1300 nM
TGI (SK-MEL-28 melanoma): 12200 nM
GI50 (KM12 colon): < 10 nM
TGI (KM12 colon): 1320 nM
GI50 (TK-10 renal): 1050 nM
TGI (TK-10 renal): 4470 nM
GI50 (MDA-MB-231 breast): 1680 nM
TGI (MDA-MB-231 breast): 8560 nM
GI50 (BT-549 breast): 130 nM
TGI (BT-549 breast): 2820 nM
GI50 (HCT-116 colon): 248 nM
TGI (HCT-116 colon): 2220 nM
GI50 (SF-539 CNS): 60.9 nM
TGI (SF-539 CNS): 1740 nM
GI50 (LOX IMVI melanoma): 444 nM
TGI (LOX IMVI melanoma): 2370 nM
GI50 (DU-145 prostate): 1270 nM
TGI (DU-145 prostate): 7710 nM
